Data: patent US4292428A, “Cephalosporin derivatives” (Hoffmann-La Roche Inc., priority 1978, dated 1981)
Like-named read-outs stand apart in the source and are kept apart here.

Assays:
Escherichia coli = assay: Activity in vivo: mice infected intraperitoneally with Escherichia coli, survival on the 4th day; conditions: 96 h, survivors on 4th day, by interpolation, read-out: CD50 (dosage at which 50% of the mice survive)
Protocol: Groups of 5 mice are infected intraperitoneally with an aqueous suspension of Escherichia coli. The derivative to be tested is administered orally or subcutaneously 1, 2.5 and 4 hours after the infection. The number of surviving mice is determined on the 4th day. Various dosages of the derivative are administered and the dosage at which 50% of the mice survive (CD50, mg/kg) is determined by interpolation.

[1] = Toxicity (mice, 24 hour value); conditions: mouse, in vivo, po
Protocol: |Toxicity: (mice, 24 hour value)

[2] = oral, 1, 2.5 and 4 hours after intraperitoneal infection
[3] = sc, subcutaneous, 1, 2.5 and 4 hours after intraperitoneal infection

SMILES	ED50 (Escherichia coli; [2]) [mg/kg]	ED50 (Escherichia coli; [3]) [mg/kg]	LD50 at 24 h [1] [mg/kg]
CON=C(C(=O)NC1C(=O)N2C(C(=O)OCOC(=O)C(C)(C)C)=C(CSc3n[nH]c(=O)c(=O)n3C)CSC12)c1ccco1 [Derivative A, Methylene-(6R,7R)-7-[2-(2-furyl)-2-(methoxyimino)-acetamido]-8-oxo-3-[[(1,4,5,6-tetrahydro-4-methyl-5,6-dioxo-as-triazin-3-yl)thio]methyl]-5-thia-1-azabicyclo-[4.2.0]oct-2-ene-2-carboxylate pivalate (Z-isomer)]	0.05	0.02	2500 to 5000
CON=C(C(=O)NC1C(=O)N2C(C(=O)OCOC(=O)C(C)(C)C)=C(CSc3nc(=O)c(OCOC(=O)C(C)(C)C)nn3C)CSC12)c1ccco1 [Derivative B, Methylene-(6R,7R)-3-{[[2,5-dihydro-2-methyl-5-oxo-6-[(pivaloyloxy)methoxy]-as-triazin-3-yl]thio]methyl}-7-[2-(2-furyl)-2-(methoxyimino)acetamido]-8-oxo-5-thia-1-azabicyclo[4.2.0]oct-2-ene-2-carboxylate pivalate (Z-isomer)]	0.03	0.02	1250 to 2500
